Here are results for nine compounds from patent US9944967B2, “Methods for the site-selective introduction of halogen into natural products” (THE REGENTS OF THE UNIVERSITY OF CALIFORNIA, priority 2013, dated 2018).

Data set [1] has as its system DEBSMod6+TE. The data set is described as follows: Triketide lactone production under competitive conditions. It counts as biochemical. The procedure: For reactions with substrate regeneration, assay mixtures contained 400 mM sodium phosphate, pH 7.5, phosphoenolpyruvate (50 mM), TCEP (5 mM), magnesium chloride (10 mM), ATP (2.5 mM), pyruvate kinase (27 U/mL), myokinase (10 U/mL), methylmalonyl-CoA epimerase (5 μM), NDK-SNAC (15 mM) and DEBSMod6+TE (10 μM). Reactions were initiated by simultaneous addition of MatB (40 μM), fluoromalonyl-CoA (1 μM) and malonyl-CoA (1 μM) and incubated at 37° C. for 18-20 h. Protein was removed by filtration through a 3 kDa NWCO membrane at 14,000×g and the filtrate was analyzed by LC-MS. Standards of H-TKL and F-TKL were prepared using a mock reaction mixture (acyl-CoAs replaced by CoAs and NDK-SNAC replaced by N-acetyl cysteamine) as diluent. TKLs were quantified using single ion monitoring, H-TKL in positive mode and F-TKL in negative mode. For reactions without substrate regeneration, assay mixtures contained 400 mM sodium phosphate, pH 7.5, TCEP (5 mM), methylmalonyl-CoA epimerase (5 μM), NDK-SNAC (3 mM) and DEBSMod6+TE (10 μM). Reactions were initiated by adding fluoromalonyl-CoA (1 mM) and malonyl-CoA (1 mM) simultaneously. The mixtures were incubated at 37° C. for 20 h, then quenched, processed and analyzed as described above. H-TKL was monitored using an Agilent 6130 MS operating in positive ion mode, and the limit of detection was verified by spiking samples to 50 nM H-TKL using a standard solution.

Data set [2] has as its system DEBSMod6+TE. The data set can be described thus: Time-course of TKL and F-TKL formation by DEBSMod6+TE with substrate regeneration. It counts as biochemical. The procedure:
Assay and preparative mixtures contained 400 mM sodium phosphate, pH 7.5, phosphoenolpyruvate (50 mM), TCEP (5 mM), magnesium chloride (10 mM), ATP (2.5 mM), pyruvate kinase (27 U/mL), myokinase (10 U/mL), CoA (0.5 mM), methylmalonyl-CoA epimerase (5 μM), MatB (40 μM or as specified) and fluoro- or methylmalonate (10-20 mM). […] This mixture was incubated at 37° C. for 30-45 min and then initiated by addition of the N-acetylcysteamine thioester of (2S,3R)-2-methyl-3-hydroxypentanoic acid (NDK-SNAC, 1-10 mM) (Cane, D. E., et al., J. Am. Chem., 115:527-535 (1993)) and DEBSMod6+TE (10 μM). Aliquots (35 μL) were removed and quenched by addition of 70% perchloric acid (1.75 μL). […] The supernatant was removed and analyzed on a Zorbax Eclipse XDB C-18 column (3.5 μm, 3×150 mm, 35° C., Agilent) using a linear gradient from 0 to 40% acetonitrile over 14 min with 0.1% formic acid as the aqueous mobile phase after an initial hold at 0% acetonitrile for 30 s (0.8 mL/min) Products were monitored using an Agilent G1315D diode array detector (TKL, A260 nm or A275 nm, F-TKL, A247 nm, NDK-SNAC; A260 nm). […] For absolute quantification, each analyte was compared to an external standard curve. […] The concentrations of TKL and H-TKL were determined by ^1H NMR in D2O using the ERETIC method against an external standard of diethylfluoromalonate (75 mM).

A further data set addresses T1, DEBSMod2/AT^0 (Saccharopolyspora erythraea, UniProt Q03131, S2598A).
T1 construct: MBP (N); His6 (C); His6 (N); made in house; host or cells: E. coli BAP1 (pRARE2 co-expressed)
The data set can be described thus: Triketide lactone production using DEBSMod2/AT0. It counts as biochemical. The settings on record: overnight; for conversion of NDK-SNAC to R-TKL: NDK-SNAC (500 μM), respective acyl-CoA regeneration system. The procedure:
All assay mixtures contained 400 mM sodium phosphate, pH 7.5, phosphoenolpyruvate (20 mM), TCEP (5 mM), magnesium chloride (5 mM), ATP (2.5 mM), pyruvate kinase (18 U/mL), myokinase (10 U/mL), methylmalonyl-CoA epimerase (5 μM), CoA (1 mM), MatB (20 μM), NDK-SNAC (500 μM) and either methylmalonate, fluoromalonate or malonate (5 mM) as appropriate. Reactions were initiated by addition of DEBSMod2/AT^0 (10 μM) and incubated at 37° C. overnight. Aliquots were removed, quenched by addition of HCl to 1 M, then processed and analyzed as described above.

Data set [3] has as its target T2, acetyl-CoA carboxylase (ACCase) (Escherichia coli, UniProt P0A9Q5+P0ABD5).
T2 construct: made in house; host or cells: E. coli BL21(de3)T1R
The data set is described as follows: Acetyl-CoA carboxylase discontinuous HPLC assay with AckA-Pta. The class given is biochemical, E. coli. The procedure:
ACCase activity was measured using a discontinuous HPLC assay. Assays were performed at 30° C. in a total volume of 200 μL containing 50 mM HEPES, pH 7.5, TCEP (10 mM), bovine serum albumin (3 mg/mL), CoA (0.5 mM), ATP (2.5 mM), magnesium chloride (10 mM), sodium bicarbonate (75 mM), acetate or fluoroacetate (10 mM), phosphoenolpyruvate (10 mM), pyruvate kinase (4 U), AckA (0.1 μM), Pta (10 μM) and ACCase (15 μM). The pH of the buffer remained unchanged after addition of sodium bicarbonate. ACCase stock solution was prepared by pre-mixing the protein subunits at equimolar ratio (85 μM) except for AccB, which was added at 1.5-fold molar excess. The reaction was initiated with addition of ATP. Aliquots (20 μL) were removed and quenched by the addition of 70% perchloric acid (1 μL). Insoluble material was removed by centrifugation and the supernatant was analyzed on an Agilent 1200 or 1290 HPLC system on a LiChroCART 250-4 Purospher RP-18e column (5 μm, 4.6×250 mm, Millipore) and monitored at A260 nm. For reactions with acetate, a linear gradient from 2 to 20% acetonitrile over 10 min with 5 mM sodium phosphate and 5 mM sodium citrate with 0.1% trifluoroacetic acid, pH 4.6 as the aqueous mobile phase (1 mL/min) was used to analyze the reaction. […]

The target of data set [4] is T3, DEBSMod6+TE (Saccharopolyspora erythraea, UniProt Q03133).
T3 construct: the sixth module of DEBS, including the terminal thioesterase (DEBSMod6+TE); His6 (C); made in house; host or cells: E. coli BAP1
The data set is described as follows: Acyl-CoA hydrolysis by DEBSMod6+TE (DTNB assay). It counts as biochemical. To be noted: for v0 (rate of acyl-CoA hydrolysis): DEBSMod6 + TE (1 μM), acyl-CoA (500 μM), mean ± s.d. (n = 4); for Relative rate of acyl-CoA hydrolysis: relative to methylmalonyl-CoA. The procedure:
Hydrolytic activity of DEBSMod6+TE was measured by monitoring the reaction of free CoA with DTNB as described previously (Huang, F., et al., Chem. Biol., 13:475-484 (2006)). Assays were performed at 37° C. in a total volume of 200 μL containing 400 mM sodium phosphate, pH 7.5, 500 μM DTNB, and DEBSMod6+TE (1 μM). Reactions were initiated by addition of acyl-CoA (0.5 mM) and monitored at 412 nm in a Beckman Coulter DU-800 spectrophotometer. Release of CoA was quantified by comparison to a standard curve (5-100 μM).

The target in the next data set is T4, NphT7 (Streptomyces sp., UniProt D7URV0).
T4 construct: made in house; host or cells: E. coli BL21(de3)T1R
T4 sequence (D7URV0 1-329): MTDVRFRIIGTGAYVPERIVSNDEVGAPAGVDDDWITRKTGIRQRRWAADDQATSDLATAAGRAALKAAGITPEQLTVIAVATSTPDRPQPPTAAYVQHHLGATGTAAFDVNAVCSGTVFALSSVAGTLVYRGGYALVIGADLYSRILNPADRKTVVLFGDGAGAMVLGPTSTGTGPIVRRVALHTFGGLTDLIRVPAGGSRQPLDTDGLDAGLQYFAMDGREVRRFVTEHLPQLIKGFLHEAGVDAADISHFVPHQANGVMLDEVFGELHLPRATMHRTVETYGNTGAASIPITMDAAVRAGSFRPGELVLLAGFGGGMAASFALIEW
The data set can be described thus: Acetoacetyl-CoA synthase NphT7 NADPH-coupled assay with PhaB. The settings on record: NphT7 reaction product. It counts as biochemical. The procedure: NphT7 activity was measured using a NADPH-coupled assay with PhaB. Assays were performed at 30° C. in a total volume of 500 μL containing 50 mM HEPES, pH 7.5, NADPH (160 μM), acetyl-CoA (200 μM), PhaB (0.05 mg/mL), NphT7 (0.2 μM for malonyl-CoA; 0.5 μM for fluoromalonyl-CoA) and malonyl-CoA (5-150 μM) or fluoromalonyl-CoA (5-200 μM). Reactions were initiated with the addition of malonyl- or fluoromalonyl-CoA and monitored at 340 nm in an Agilent 8453 diode array spectrophotometer. The PhaB-coupled assay was tested both by doubling NphT7, which doubled the initial velocity with both the fluorinated and non-fluorinated substrates, and also by doubling the amount of PhaB, which led to no difference in initial velocity.

[5] abbreviates: MatB regeneration, equimolar malonyl-CoA and fluoromalonyl-CoA, mean ± s.d. (n = 3).

In the case of `CC[C@H]1OC(=O)[C@@H](F)C(=O)[C@H]1C` [F-TKL, (2S,4S,5R)-2-fluoro-4-methyl-3-oxo-5-hydroxy-n-heptanoic Acid δ-lactone], the “[F-TKL]/[H-TKL]” value is recorded as 10.3 ± 0.1 with DEBSMod6+TE [1] (MatB regeneration) and above 9 in the data set with DEBSMod6+TE [1] (No regeneration). For the same compound, the “[F-TKL]” value with DEBSMod6+TE [1] (setting [5]) is listed as 7,390 ± 520 nM; in the data set on DEBSMod6+TE [1] (No regeneration, equimolar malonyl-CoA and fluoromalonyl-CoA (1 mM), mean ± s.d. (n = 3)) it was 450 ± 60 nM. Also, in the data set on DEBSMod6+TE [1] (direct competition, equimolar (1 mM) fluoromalonyl-CoA and malonyl-CoA), the “fold more F-TKL than H-TKL produced” value is recorded as “at least 10 fold”. Moreover, the “Initial rate of F-TKL formation” value with DEBSMod6+TE [2] (10 mM NDK-SNAC) was 0.14 h⁻¹. Moreover, the “conversion of NDK-SNAC to R-TKL” value at DEBSMod2/AT^0 came out at 43%.

As for `O=C(O)CF` [Fluoroacetate, reference compound], the “fold slower rate of conversion compared to acetate” value in data set [3] (one-pot AckA-Pta/ACCase carboxylation) stood at 4.5 fold.

For `CCC1OC(=O)CC(O)C1C` (stereo not drawn) [H-TKL, 2-desmethyltriketide lactone, reference compound], the “[H-TKL]” value is 720 ± 50 nM with DEBSMod6+TE [1] (setting [5]); below 50 nM in the data set with DEBSMod6+TE [1] (No regeneration, equimolar malonyl-CoA and fluoromalonyl-CoA (1 mM)). At DEBSMod2/AT^0, the “conversion of NDK-SNAC to R-TKL” value is below 0.01%.

Turning to `CC(C)(COP(=O)(O)OP(=O)(O)OC[C@H]1O[C@@H](n2cnc3c(N)ncnc32)[C@H](O)[C@@H]1OP(=O)(O)O)[C@@H](O)C(=O)NCCC(=O)NCCSC(=O)CC(=O)O` [Malonyl-CoA], on DEBSMod6+TE [4], the “v0 (rate of acyl-CoA hydrolysis)” value was found to be 6.1 ± 0.4 µM/min and the “Relative rate of acyl-CoA hydrolysis” value is recorded as 4.5.

In the case of `CC(C(=O)O)C(=O)SCCNC(=O)CCNC(=O)[C@H](O)C(C)(C)COP(=O)(O)OP(=O)(O)OC[C@H]1O[C@@H](n2cnc3c(N)ncnc32)[C@H](O)[C@@H]1OP(=O)(O)O` (stereo partly drawn) [Methylmalonyl-CoA], on DEBSMod6+TE [4], the “v0 (rate of acyl-CoA hydrolysis)” value stood at 1.36 ± 0.05 µM/min and the “Relative rate of acyl-CoA hydrolysis” value was found to be 1.0.

`CC[C@@H](O)[C@H](C)C(=O)SCCNC(C)=O` [NDK-SNAC, (2S,3R)-2-methyl-3-hydroxypentanoyl-N-acetylcysteamine thioester]: the NDK-SNAC consumed is 82% at DEBSMod2/AT^0 (fluoromalonyl-CoA regeneration system) and 100% at DEBSMod2/AT^0 (malonyl-CoA regeneration system).

For the compound `CC[C@H]1OC(=O)[C@H](C)C(=O)[C@H]1C` [TKL, (2R,4S,5R)-2,4-Dimethyl-3-oxo-5-hydroxy-n-heptanoic acid β-lactone, reference compound], in the data set with DEBSMod6+TE [2] (2.5 mM NDK-SNAC), the “Initial rate of TKL formation” value is 1.5 min⁻¹. The “conversion of NDK-SNAC to R-TKL” value at DEBSMod2/AT^0 is reported as “all”.

With `CC(=O)C(F)C(=O)SCCNC(=O)CCNC(=O)[C@H](O)C(C)(C)COP(=O)(O)OP(=O)(O)OC[C@H]1O[C@@H](n2cnc3c(N)ncnc32)[C@H](O)[C@@H]1OP(=O)(O)O` (stereo partly drawn) [acetofluoroacetyl-CoA], the “stability under the assay conditions” value at NphT7 is given as “degrade fairly rapidly”.

Consider `CC(C)(COP(=O)(O)OP(=O)(O)OC[C@H]1O[C@@H](n2cnc3c(N)ncnc32)[C@H](O)[C@@H]1OP(=O)(O)O)[C@@H](O)C(=O)NCCC(=O)NCCSC(=O)CF` [fluoroacetyl-CoA], for which the “covalent inactivation of the ACCase” value in data set [3] (judged from overall extent of reaction) is on record as “not significant”.
